# Assays:
# HL-60 = assay: Growth inhibition assay; assay type: cell-based; details: Homo sapiens, HL-60; read-out: HL-60 IC50 (μM) Mean ± S.E.
# Description: (§1) Cells were seeded in 96-well plastic plates and exposed to MPT0L056 for 48 hours. Cell viability was assessed using the 3-(4,5-dimethylthiazol-2-yl)-2,5-diphenyltetrazolium bromide assay. Growth inhibition was expressed as the percentage of surviving cells in drug-treated versus DMSO-treated control cells.
# (§2) The compounds of the invention were subjected to growth inhibition assay.
# HCT-116 = assay: Growth inhibition assay; assay type: cell-based; details: Homo sapiens, HCT-116; read-out: HCT-116 GI50 (μM) Mean ± S.E.
# Description: as §1, §2
# MDA-MB-231 = assay: Growth inhibition assay; assay type: cell-based; details: Homo sapiens, MDA-MB-231; read-out: MDA-MB-231 GI50 (μM) Mean ± S.E.
# Description: as §1, §2
# Hep 3B = assay: Growth inhibition assay; assay type: cell-based; details: Homo sapiens, Hep3B; read-out: Hep3B GI50 (μM) Mean ± S.E.
# Description: as §1, §2
# [1] = system: human RPMI8226 multiple myeloma; assay: Human RPMI8226 multiple myeloma xenograft in female nude mice (TMU-RPMI8226-e0001); assay type: in vivo; details: SAHA 100 mg/kg once every day
# Text: The 42-day study utilized five groups of mice (n=6) bearing established human PRMI8226 multiple myeloma with mean volumes of ˜85 mm^3 on D1. […] (FIG. 3).
# [2] = system: human A2780 ovarian adenocarcinoma; assay: Human A2780 ovarian cancer xenograft in female nude mice (TMU-A2780-e0001); assay type: in vivo; details: cisplatin 5 mg/kg QWK to end
compound,measurement,setting,value
"Cc1cnc(NC(=O)c2ccc(CNC3=C(Cl)C(=O)c4ccccc4C3=O)cc2)s1 [MPT0L098, 4-((3-chloro-1,4-dioxo-1,4-dihydronaphthalen-2-ylamino)methyl)-N-(5-methylthiazol-2-yl)benzamide]",IC50,HL-60,7.06 ± 0.73 µM
same,GI50,HCT-116,10 to 30 µM
same,GI50,MDA-MB-231,10 to 30 µM
same,GI50,Hep 3B,10 to 30 µM
"Cc1cc(NC(=O)c2ccc(CNC3=C(Cl)C(=O)c4ccccc4C3=O)cc2)n[nH]1 [MPT0L099, 4-((3-chloro-1,4-dioxo-1,4-dihydronaphthalen-2-ylamino)methyl)-N-(5-methyl-3H-pyrazol-3-yl)benzamide]",IC50,HL-60,10 to 30 µM
same,GI50,HCT-116,10 to 30 µM
same,GI50,MDA-MB-231,10 to 30 µM
same,GI50,Hep 3B,10 to 30 µM
"Cc1cc(N)nn1C(=O)c1ccc(CNC2=C(Cl)C(=O)c3ccccc3C2=O)cc1 [MPT0L100, 2-(4-(3-amino-5-methyl-1H-pyrazole-1-carbonyl)benzylamino)-3-chloronaphthalene-1,4-dione]",IC50,HL-60,10 to 30 µM
same,GI50,HCT-116,10 to 30 µM
same,GI50,MDA-MB-231,10 to 30 µM
same,GI50,Hep 3B,10 to 30 µM
"O=C(Nc1ccncc1[N+](=O)[O-])c1ccc(CNC2=C(Cl)C(=O)c3ccccc3C2=O)cc1 [MPT0L103, 4-((3-chloro-1,4-dioxo-1,4-dihydronaphthalen-2-ylamino)methyl)-N-(3-nitropyridin-4-yl)benzamide]",IC50,HL-60,5.42 ± 0.7 µM
same,GI50,HCT-116,6.12 ± 1.17 µM
same,GI50,MDA-MB-231,10 to 30 µM
same,GI50,Hep 3B,10 to 30 µM
"O=C(Nc1ccc2ncccc2c1)c1ccc(CNC2=C(Cl)C(=O)c3ccccc3C2=O)cc1 [MPT0L108, 4-((3-chloro-1,4-dioxo-1,4-dihydronaphthalen-2-ylamino)methyl)-N-(quinolin-6-yl)benzamide]",IC50,HL-60,8.09 ± 0.57 µM
same,GI50,HCT-116,6.82 ± 0.35 µM
same,GI50,MDA-MB-231,10 to 30 µM
same,GI50,Hep 3B,10 to 30 µM
"O=C(Nc1cccc2cccnc12)c1ccc(CNC2=C(Cl)C(=O)c3ccccc3C2=O)cc1 [MPT0L109, 4-((3-chloro-1,4-dioxo-1,4-dihydronaphthalen-2-ylamino)methyl)-N-(quinolin-8-yl)benzamide]",IC50,HL-60,6.43 ± 2.44 µM
same,GI50,HCT-116,10 to 30 µM
same,GI50,MDA-MB-231,10 to 30 µM
same,GI50,Hep 3B,10 to 30 µM
"O=C(Nc1cnc2ccccc2c1)c1ccc(CNC2=C(Cl)C(=O)c3ccccc3C2=O)cc1 [MPT0L110, 4-((3-chloro-1,4-dioxo-1,4-dihydronaphthalen-2-ylamino)methyl)-N-(quinolin-3-yl)benzamide]",IC50,HL-60,7.93 ± 1.14 µM
same,GI50,HCT-116,10 to 30 µM
same,GI50,MDA-MB-231,10 to 30 µM
same,GI50,Hep 3B,10 to 30 µM
"O=C(Nc1cccc2ncccc12)c1ccc(CNC2=C(Cl)C(=O)c3ccccc3C2=O)cc1 [MPT0L111, 4-((3-chloro-1,4-dioxo-1,4-dihydronaphthalen-2-ylamino)methyl)-N-(quinolin-5-yl)benzamide]",IC50,HL-60,2.23 ± 0.27 µM
same,GI50,HCT-116,10 to 30 µM
same,GI50,MDA-MB-231,10 to 30 µM
same,GI50,Hep 3B,10 to 30 µM
"Cc1cc(NC(=O)c2ccc(CNC3=C(Cl)C(=O)c4ccccc4C3=O)cc2)c2ccccc2n1 [MPT0L112, 4-((3-chloro-1,4-dioxo-1,4-dihydronaphthalen-2-ylamino)methyl)-N-(2-methylquinolin-4-yl)benzamide]",IC50,HL-60,2.68 ± 0.03 µM
same,GI50,HCT-116,10 to 30 µM
same,GI50,MDA-MB-231,8.12 ± 1.32 µM
same,GI50,Hep 3B,10 to 30 µM
"O=C(Nc1ccc2[nH]ccc2c1)c1ccc(CNC2=C(Cl)C(=O)c3ccccc3C2=O)cc1 [MPT0L113, 4-((3-chloro-1,4-dioxo-1,4-dihydronaphthalen-2-ylamino)methyl)-N-(1H-indol-5-yl)benzamide]",IC50,HL-60,8.92 ± 0.39 µM
same,GI50,HCT-116,10 to 30 µM
same,GI50,MDA-MB-231,10 to 30 µM
same,GI50,Hep 3B,10 to 30 µM
"Cc1cc2cc(NC(=O)c3ccc(CNC4=C(Cl)C(=O)c5ccccc5C4=O)cc3)ccc2[nH]1 [MPT0L114, 4-((3-chloro-1,4-dioxo-1,4-dihydronaphthalen-2-ylamino)methyl)-N-(2-methyl-1H-indol-5-yl)benzamide]",IC50,HL-60,10 to 30 µM
same,GI50,HCT-116,10 to 30 µM
same,GI50,MDA-MB-231,10 to 30 µM
same,GI50,Hep 3B,10 to 30 µM
"O=C(Nc1cccc2[nH]ccc12)c1ccc(CNC2=C(Cl)C(=O)c3ccccc3C2=O)cc1 [MPT0L116, 4-((3-chloro-1,4-dioxo-1,4-dihydronaphthalen-2-ylamino)methyl)-N-(1H-indol-4-yl)benzamide]",IC50,HL-60,4.06 ± 1.82 µM
same,GI50,HCT-116,10 to 30 µM
same,GI50,MDA-MB-231,10 to 30 µM
same,GI50,Hep 3B,10 to 30 µM
"O=C(Nc1ccc2cn[nH]c2c1)c1ccc(CNC2=C(Cl)C(=O)c3ccccc3C2=O)cc1 [MPT0L118, 4-((3-chloro-1,4-dioxo-1,4-dihydronaphthalen-2-ylamino)methyl)-N-(1H-indazol-6-yl)benzamide]",IC50,HL-60,7.39 ± 3.49 µM
same,GI50,HCT-116,10 to 30 µM
same,GI50,MDA-MB-231,10 to 30 µM
same,GI50,Hep 3B,10 to 30 µM
"O=C(Nc1cnc2[nH]ccc2c1)c1ccc(CNC2=C(Cl)C(=O)c3ccccc3C2=O)cc1 [MPT0L119, 4-((3-chloro-1,4-dioxo-1,4-dihydronaphthalen-2-ylamino)methyl)-N-(1H-pyrrolo[2,3-b]pyridin-5-yl)benzamide]",IC50,HL-60,10 to 30 µM
same,GI50,HCT-116,10 to 30 µM
same,GI50,MDA-MB-231,10 to 30 µM
same,GI50,Hep 3B,10 to 30 µM
"O=C(Nc1cnc2[nH]ncc2c1)c1ccc(CNC2=C(Cl)C(=O)c3ccccc3C2=O)cc1 [MPT0L120, 4-((3-chloro-1,4-dioxo-1,4-dihydronaphthalen-2-ylamino)methyl)-N-(1H-pyrazolo[3,4-b]pyridin-5-yl)benzamide]",IC50,HL-60,7.31 ± 1.94 µM
same,GI50,HCT-116,10 to 30 µM
same,GI50,MDA-MB-231,10 to 30 µM
same,GI50,Hep 3B,10 to 30 µM
"Cn1ccc2c(NC(=O)c3ccc(CNC4=C(Cl)C(=O)c5ccccc5C4=O)cc3)ncnc21 [MPT0L121, 4-((3-chloro-1,4-dioxo-1,4-dihydronaphthalen-2-ylamino)methyl)-N-(7-methyl-711-pyrrolo[2,3-d]pyrimidin-4-yl)benzamide]",IC50,HL-60,2.68 ± 0.17 µM
same,GI50,HCT-116,10 to 30 µM
same,GI50,MDA-MB-231,10 to 30 µM
same,GI50,Hep 3B,10 to 30 µM
"O=C(CCCCCCC(=O)Nc1ccccc1)NO [SAHA, reference compound]",antitumor activity,[1],also showed antitumor activity
same,mice with complete regression,[1],one of six
"N.N.[Cl][Pt][Cl] [cisplatin, reference compound]",antitumor activity,[2],showed antitumor activity
